Results taken from patent US11938104B1, “Compositions and methods for prevention and treatment of coronavirus and related disorders” (Abrexa Pharmaceuticals, Inc., priority 2021, dated 2024).
Like-named read-outs stand apart in the source and are kept apart here.

How the values were obtained:
male Sprague Dawley rats = format: in vivo, rat
Male SD rats = assay: J147 dose-response, 2-hour suture MCAO-induced ischemia followed by reperfusion, 72 h (Example 3); format: in vivo, rat
SD rats = conditions: rat, in vivo
[1] = J147 1.0, 10, 30 mg/kg at 2 hours after onset of ischemia, 72 h after stroke, dose-dependent manner

For `COc1cccc(/C=N/N(C(=O)C(F)(F)F)c2ccc(C)cc2C)c1` [Compound J147], the optimal effective dose (male Sprague Dawley rats; iv, doses of 1, 10 and 30 mg/kg tested) was 10 mg/kg, the “infarct volume (TTC-stained sections)” value (male Sprague Dawley rats; rat, in vivo) was “large reduction” and the “infarct volume relative to placebo (TTC-stained sections)” value (male Sprague Dawley rats; rat, in vivo) was “insignificant reduction”. For the same compound, the “infarct volume (TTC-stained sections)” value (male Sprague Dawley rats; rat, in vivo, ip) was “modest reduction”, the “effective optimal dose for the treatment of acute ischemic stroke in rats” value (Male SD rats; 1.0, 10, 30 mg/kg tested) was 10 mg/kg and the infarct volumes (Male SD rats; [1]) was “significantly reduced”. The “neurological deficit after reperfusion (Bederson score)” value (Male SD rats; [1]) was “significantly reduced” and the “protection from stroke in the absence of reperfusion (infarction, TTC-stained sections)” value (SD rats) was “fails to provide any significant protection”.
